Experiments:
[1] = Single dose pharmacokinetics in animals, dog; format: in vivo, Beagle dogs; conditions: male, Beagle, plasma, after Formula II 15 mg/kg oral, read-out: exposure (expressed as AUC)
Method: (§1) Pharmacokinetic studies were performed in various animal species dosed with the compound according to Formula II to determine the exposure to the compound according to Formula I as well as its apparent terminal half life (T1/2), when possible.
Sprague-Dawley rats (male, 200-250 g), CD1 mice (male, 25-30 g), Beagle dogs (male, 9-10 kg), Göttingen minipigs (male, 10-15 kg) and New Zealand White rabbits (male, 3-5 kg) were acclimatized for at least 7 days before treatment and were kept on a 12 hr light/dark cycle (07 h00-19 h00).
(§2) Temperature was maintained at approximately 22° C., and food and water were provided ad libitum. […]
(§3) The compound according to Formula II was formulated in 0.5% methylcellulose and dosed orally to 3 animals (or 3 mouse/time points) as a single esophageal gavage at dose ranging from 15 to 45 mg/kg under a dosing volume of 5 or 10 mL/kg.
(§4) Blood samples were collected over a 24-h period via the jugular vein (dog, minipig), ear blood vessel (rabbit), cardiac puncture (mouse) or retro-orbital sinus (rat) with lithium heparin as anti-coagulant. Whole blood samples were centrifuged and the resulting plasma samples were stored at −20° C. pending analysis.
(§5) Plasma concentrations of the compound according to Formula I and of the compound according to Formula II were determined by an LC-MS/MS method with a limit of quantification ≦10.0 ng/mL for both Formula I and Formula II for all species.
(§6) Pharmacokinetic parameters were calculated using a statistical analysis package (WinNonLin (Pharsight, Sunnyvale, Calif.: CA 94086, USA).

[2] = Single dose pharmacokinetics in animals, rabbit; format: in vivo, New Zealand White rabbits; conditions: male, New Zealand White, plasma, after Formula II 20 mg/kg oral, read-out: exposure (expressed as AUC)
Method: as §1
Sprague-Dawley rats (male, 200-250 g), CD1 mice (male, 25-30 g), Beagle dogs (male, 9-10 kg), Göttingen minipigs (male, […]) were acclimatized for at least 7 days before treatment and were kept on a 12 hr light/dark cycle (07 h00-19 h00).
as §2, §4, §5, §6

[3] = Target inhibition: circulating levels in healthy volunteers as multiples of whole blood assay IC50; format: in vivo, human
Method: The compound according to Formula II was dosed daily in healthy volunteers at 200 mg QD and 100 mg BID.
The resulting levels of Formula II and Formula I were then measured and plotted (FIG. 5) as multiples of their respective IC50 as determined by the Whole Blood assay described above in Example 3.4.

[4] = Single dose pharmacokinetics in human; format: in vivo; conditions: for AUC: plasma, po, human, capsules, read-out: exposure (expressed as AUC)
Method: Serial blood samples were collected over 72 h to determine plasma concentrations of the compounds according to Formula II and Formula I using a validated liquid chromatography-mass spectrometry/mass spectrometry (LC-MS/MS) method with a limit of quantification of 1.00 ng/mL. PK parameters were assessed using a statistical analysis package (WinNonLin (Pharsight, Sunnyvale, Calif.: CA 94086, USA).
Mean plasma concentration-time profiles of the compound according to Formula II and the compound according to Formula I were measured.
In order to show the comparative exposures of the two compounds, the AUC of the compounds according to Formula I and the compound according to Formula II were calculated. The AUC value represents the total exposure of the compound in the species after dosing. These values were then expressed as a ratio of AUC of the compound according to Formula I: AUC of the compound according to Formula II in FIG. 4. From this ratio it can clearly be seen that there was a significant difference in exposure to a compound according to Formula I after administration of a compound according to Formula II in human compared to the exposure seen in animals for therapeutically equivalent doses. Without wanting to be bound by theory, it was believed that this difference was related to the difference in the apparent terminal half-life in the different species.

[5] = Single dose pharmacokinetics in animals, rat; format: in vivo, Sprague-Dawley rats; conditions: male, Sprague-Dawley, plasma, after Formula II 45 mg/kg oral, read-out: exposure (expressed as AUC)
Method: Pharmacokinetic studies were performed in various animal species dosed with the compound according to Formula II to determine the exposure to the compound according to Formula I as well as its apparent terminal half life (T1/2), when possible. […]
Temperature was maintained at approximately 22° C., and food and water were provided ad libitum.
The compound according to […] was formulated in 0.5% methylcellulose and dosed orally to 3 or 6 animals as a single esophageal gavage at dose ranging from 15 to 180 mg/kg under a dosing volume of 5 or 10 mL/kg.
as §3, §4, §5, §6

## O=C(Nc1nc2cccc(-c3ccc(CN4CCS(=O)(=O)CC4)cc3)n2n1)C1CC1 [Formula II, Cyclopropanecarboxylic acid {5-[4-(1,1-dioxo-thiomorpholin-4-ylmethyl)-phenyl]-[1,2,4]triazolo[1,5-a]pyridin-2-yl}-amide]
[1]
  AUC: 44900 ng·h/mL
[2]
  AUC: 26000 ng·h/mL
[3]; Formula II at 100 mg BID, time point 0 h
  Ratio [blood circulating dose]/[circulating dose at IC50 quantity]: 0.09
[3]; Formula II at 100 mg BID, time point 0.5 h
  Ratio [blood circulating dose]/[circulating dose at IC50 quantity]: 0.12
[3]; Formula II at 100 mg BID, time point 1 h
  Ratio [blood circulating dose]/[circulating dose at IC50 quantity]: 0.48
[3]; Formula II at 100 mg BID, time point 2 h
  Ratio [blood circulating dose]/[circulating dose at IC50 quantity]: 1.28
[3]; Formula II at 100 mg BID, time point 3 h
  Ratio [blood circulating dose]/[circulating dose at IC50 quantity]: 1.71
[3]; Formula II at 100 mg BID, time point 5 h
  Ratio [blood circulating dose]/[circulating dose at IC50 quantity]: 0.88
[3]; Formula II at 100 mg BID, time point 8 h
  Ratio [blood circulating dose]/[circulating dose at IC50 quantity]: 0.26
[3]; Formula II at 100 mg BID, time point 12 h
  Ratio [blood circulating dose]/[circulating dose at IC50 quantity]: 0.09
[3]; Formula II at 100 mg BID, time point 12.5 h
  Ratio [blood circulating dose]/[circulating dose at IC50 quantity]: 0.12
[3]; Formula II at 100 mg BID, time point 13 h
  Ratio [blood circulating dose]/[circulating dose at IC50 quantity]: 0.48
[3]; Formula II at 100 mg BID, time point 14 h
  Ratio [blood circulating dose]/[circulating dose at IC50 quantity]: 1.28
[3]; Formula II at 100 mg BID, time point 15 h
  Ratio [blood circulating dose]/[circulating dose at IC50 quantity]: 1.71
[3]; Formula II at 100 mg BID, time point 17 h
  Ratio [blood circulating dose]/[circulating dose at IC50 quantity]: 0.88
[3]; Formula II at 100 mg BID, time point 20 h
  Ratio [blood circulating dose]/[circulating dose at IC50 quantity]: 0.26
[3]; Formula II at 100 mg BID, time point 24 h
  Ratio [blood circulating dose]/[circulating dose at IC50 quantity]: 0.09
[3]; Formula II at 200 mg QD, time point 0 h
  Ratio [blood circulating dose]/[circulating dose at IC50 quantity]: 0.02
[3]; Formula II at 200 mg QD, time point 0.5 h
  Ratio [blood circulating dose]/[circulating dose at IC50 quantity]: 0.46
[3]; Formula II at 200 mg QD, time point 1 h
  Ratio [blood circulating dose]/[circulating dose at IC50 quantity]: 3.14
[3]; Formula II at 200 mg QD, time point 2 h
  Ratio [blood circulating dose]/[circulating dose at IC50 quantity]: 3.88
[3]; Formula II at 200 mg QD, time point 3 h
  Ratio [blood circulating dose]/[circulating dose at IC50 quantity]: 3.16
[3]; Formula II at 200 mg QD, time point 5 h
  Ratio [blood circulating dose]/[circulating dose at IC50 quantity]: 1.31
[3]; Formula II at 200 mg QD, time point 8 h
  Ratio [blood circulating dose]/[circulating dose at IC50 quantity]: 0.36
[3]; Formula II at 200 mg QD, time point 24 h
  Ratio [blood circulating dose]/[circulating dose at IC50 quantity]: 0.11
[4]; oral, human plasma, single dose (10-200 mg) of Formula II as capsules, read-out: mean apparent terminal elimination half-life
  half-life: 300 to 480 min
[4]; after Formula II 10 mg single dose
  AUC: 128 ng·h/mL
[4]; after Formula II 25 mg single dose
  AUC: 331 ng·h/mL
[4]; after Formula II 50 mg single dose
  AUC: 735 ng·h/mL
[4]; after Formula II 100 mg single dose
  AUC: 1690 ng·h/mL
[4]; after Formula II 200 mg single dose
  AUC: 4500 ng·h/mL
[5]
  AUC: 33300 ng·h/mL
